Measured values: patent US9732092B2, “Substituted 2,3,4,5,7,9,13,13a-octahydropyrido[1′,2′:4,5]pyrazino[2,1-b][1,3]OXAZEPINES and methods for treating viral infections” (Gilead Sciences, Inc., priority 2012, dated 2017)
One block for each compound: values may come before it.

Experiments:
[1] = Cytotoxicity (CC50) in MT4 cells, mock-infected; settings: human
Description: (§1) For the antiviral assay utilizing MT4 cells, 0.4 μL of […] test concentration of 3-fold serially diluted compound in DMSO was added to 40 μL of cell growth medium (RPMI 1640, 10% FBS, 1% penicilline/Streptomycine, 1% L-Glutamine, 1% HEPES) in each well of 384-well assay plates (10 concentrations) in quidruplicate.
(§2) 1 mL aliquots of 2×10^6 MT4 cells are pre-infected for 1 and 3 hours respectively at 37° C. with 25 μL (MT4) or of either cell growth medium (mock-infected) or a fresh 1:250 dilution of an HIV-IIIb concentrated ABI stock (0.004 m.o.i. for MT4 cells). Infected and uninfected cells are diluted in cell growth medium and 35 μL of 2000 (for MT4) cells is added to each well of the assay plates.
(§3) Assay plates were then incubated in a 37° C. incubator. After 5 days of incubation, 25 μL of 2× concentrated CellTiter-GloT Reagent (catalog # G7573, Promega Biosciences, Inc., Madison, Wis.) was added to each well of the assay plate. Cell lysis was carried out by incubating at room temperature for 2-3 minutes, and then chemiluminescence was read using the Envision reader (PerkinElmer).

human PXR (NR1I2) = human PXR (NR1I2) (Homo sapiens (Human), UniProt O75469); experiment: Human PXR activation assay (luciferase reporter gene, DPX2 cells); format: cell-based; settings: relative to maximum fold induction by 10 or 20 μM rifampicin
Description: A stably transformed tumor cell line (DPX2) was plated on 96-well microtiter plates. DPX2 cells harbor the human PXR gene (NR1I2) and a luciferase reporter gene linked to two promoters identified in the human CYP3A4 gene, namely XREM and PXRE. […] The number of viable cells was determined and the reporter gene activity was assessed. Positive control: […]

MT4 cells = experiment: Cytotoxicity (CC50) in MT4 cells, mock-infected; settings: read-out: CC50 nM in MT-4; MT4 cells, 5 days, CellTiter-Glo
Description: as §1, §2, §3

[2] = Pharmacokinetic analysis following oral administration to beagle dogs; format: in vivo; settings: beagle dog, 1 mg/kg
Description: Pharmacokinetic analysis was performed on various test compounds following intravenous or oral administration to beagle dogs.
For pharmacokinetic analysis of intravenously administered compounds, the test compounds were formulated in 5% Ethanol, 55% PEG 300, and 40% water at 0.1 mg/mL for IV infusion. For pharmacokinetic analysis of orally administered compounds, the test compounds were formulated as an aqueous suspension in 0.1% Tween 20, 0.5% HPMC LV100 in Di Water at 1 mg/kg.
Each dosing group consisted of 3 male, non-naïve purebred beagle dogs. At dosing, the animals weighed between 10 to 13 kg. The animals were fasted overnight prior to dose administration and up to 4 hr after dosing. For studies of intravenous administration, the test article was administered to the animals by intravenous infusion over 30 min. The rate of infusion was adjusted according to the body weight of each animal to deliver a dose of 0.5 mg/kg. […]
For pharmacokinetic analysis of orally administered compounds, serial venous blood samples (approximately 0.3 mL each) were taken from each animal at time points of 0, 0.25, 0.50, 1.0, 2.0, 4.0, 6.0, 8.0, 12.0 and 24.0 hours after dosing. Blood samples were collected, prepared and analyzed in a similar way to the intranveous studies described above. […]

[3] = MT4 cells, mock-infected (uninfected)

Sequence of human PXR (NR1I2) (O75469 whole entry): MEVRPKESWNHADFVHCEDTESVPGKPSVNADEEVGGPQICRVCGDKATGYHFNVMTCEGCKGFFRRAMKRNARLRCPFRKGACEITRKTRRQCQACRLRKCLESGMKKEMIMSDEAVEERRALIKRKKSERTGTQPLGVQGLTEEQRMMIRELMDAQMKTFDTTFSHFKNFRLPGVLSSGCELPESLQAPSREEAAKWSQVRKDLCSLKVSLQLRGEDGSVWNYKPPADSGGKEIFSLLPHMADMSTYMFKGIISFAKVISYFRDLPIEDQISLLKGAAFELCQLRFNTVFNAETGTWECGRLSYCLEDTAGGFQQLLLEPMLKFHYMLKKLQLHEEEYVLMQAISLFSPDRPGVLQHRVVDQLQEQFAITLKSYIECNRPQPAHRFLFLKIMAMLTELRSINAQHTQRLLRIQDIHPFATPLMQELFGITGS

Emax at 24 h, 15 µM (human PXR (NR1I2)): 123%
SMILES: O=C(NCc1c(F)cc(F)cc1F)c1cn2c(c(O)c1=O)C(=O)N1[C@H]3CC[C@H](CC3)[C@@H]1C2 [Compound 102, (1S,4S,12aR)-7-hydroxy-6,8-dioxo-N-(2,4,6-trifluorobenzyl)-1,2,3,4,6,8,12, 12a-octahydro-1,4-ethanodipyrido[1,2-a:1′,2′-d]pyrazine-9-carboxamide]
CC50 at 5 days [1, 3]: 12 µM

SMILES: O=C(NCc1ccc(F)cc1F)c1cn2c(c(O)c1=O)C(=O)N1[C@@H]3COC[C@@H](C3)O[C@H]1C2 (racemic) [50/51, N-(2,4-difluorobenzyl)-9-hydroxy-8,10-dioxo-2,3,5,6,8, 10,14,14a-octahydro-2,6-methanopyrido[1′,2′:4,5]pyrazino[2,1-b][1,6,3]dioxazocine-11-carboxamide]
CC50 at 5 days [1]: 37.2 µM

SMILES: O=C(NC1(c2ccc(F)cc2F)CCCCC1)c1cn2c(c(O)c1=O)C(=O)N1C(C2)O[C@H]2CC[C@@H]1C2 (stereo partly drawn) [Compound 34, (2S,5R)—N-(1-(2,4-difluorophenyl)cyclohexyl)-8-hydroxy-7,9-dioxo-2,3,4,5,7,9,13,13a-octahydro-2,5-methanopyrido[1′,2′:4, 5]pyrazino[2,1-b][1,3]oxazepine-10-carboxamide]
CC50 (MT4 cells): 3580 nM

F (%) aqueous suspension [2]: 28.0%
SMILES: O=C(NCc1c(F)cc(F)cc1F)c1cn2c(c(O)c1=O)C(=O)N1[C@H]3CC[C@H](C3)O[C@@H]1C2 [Compound 42, (2R,5S,13aR)-8-hydroxy-7,9-dioxo-N-(2,4,6-trifluorobenzyl)-2,3,4,5,7,9,13,13a-octahydro-2,5-methanopyrido[1′,2′:4,5]pyrazino[2,1-b][1,3]oxazepine-10-carboxamide]

SMILES: O=C(NCc1c(F)cc(F)cc1F)c1cn2c(c(O)c1=O)C(=O)N1[C@H]3CC[C@H](CC3)[C@H]1C2 [Compound 101, (1R,4R,12aS)-7-hydroxy-6,8-dioxo-N-(2,4,6-trifluorobenzyl)-1,2,3,4,6,8,12,12a-octahydro-1,4-ethanodipyrido[1,2-a:1′,2′-d]pyrazine-9-carboxamide]
CC50 at 5 days [1, 3]: 11.6 µM
